Data reported in patent US5171750A (priority 1991, dated 1992).
Read-outs that look alike come from different tables or passages of the source.

Assays:
human erythrocyte AChE = human erythrocyte AChE (Homo sapiens, UniProt P22303); experiment: biochemical; format: biochemical
plasma BChE = plasma BChE (Homo sapiens, UniProt P06276); experiment: biochemical
neuromuscular AChR = conditions: cited from earlier work

Chain of plasma BChE (P06276 29-602): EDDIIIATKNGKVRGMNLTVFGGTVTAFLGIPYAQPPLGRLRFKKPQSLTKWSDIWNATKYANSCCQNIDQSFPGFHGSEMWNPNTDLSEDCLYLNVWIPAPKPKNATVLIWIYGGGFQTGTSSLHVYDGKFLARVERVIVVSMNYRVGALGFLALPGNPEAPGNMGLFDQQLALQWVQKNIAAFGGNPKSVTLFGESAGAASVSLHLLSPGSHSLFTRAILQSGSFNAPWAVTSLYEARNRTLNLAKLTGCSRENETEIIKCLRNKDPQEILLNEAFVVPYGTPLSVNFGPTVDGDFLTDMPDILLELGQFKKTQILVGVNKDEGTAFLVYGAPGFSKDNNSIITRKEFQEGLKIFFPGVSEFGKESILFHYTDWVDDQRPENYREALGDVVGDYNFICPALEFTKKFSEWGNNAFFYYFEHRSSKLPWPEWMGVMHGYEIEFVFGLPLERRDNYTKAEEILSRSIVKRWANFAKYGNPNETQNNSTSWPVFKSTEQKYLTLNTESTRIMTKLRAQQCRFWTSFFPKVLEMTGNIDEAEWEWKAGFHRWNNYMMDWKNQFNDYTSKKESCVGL
Chain of human erythrocyte AChE (P22303-2 with tags, fused parts or gaps limits assumed): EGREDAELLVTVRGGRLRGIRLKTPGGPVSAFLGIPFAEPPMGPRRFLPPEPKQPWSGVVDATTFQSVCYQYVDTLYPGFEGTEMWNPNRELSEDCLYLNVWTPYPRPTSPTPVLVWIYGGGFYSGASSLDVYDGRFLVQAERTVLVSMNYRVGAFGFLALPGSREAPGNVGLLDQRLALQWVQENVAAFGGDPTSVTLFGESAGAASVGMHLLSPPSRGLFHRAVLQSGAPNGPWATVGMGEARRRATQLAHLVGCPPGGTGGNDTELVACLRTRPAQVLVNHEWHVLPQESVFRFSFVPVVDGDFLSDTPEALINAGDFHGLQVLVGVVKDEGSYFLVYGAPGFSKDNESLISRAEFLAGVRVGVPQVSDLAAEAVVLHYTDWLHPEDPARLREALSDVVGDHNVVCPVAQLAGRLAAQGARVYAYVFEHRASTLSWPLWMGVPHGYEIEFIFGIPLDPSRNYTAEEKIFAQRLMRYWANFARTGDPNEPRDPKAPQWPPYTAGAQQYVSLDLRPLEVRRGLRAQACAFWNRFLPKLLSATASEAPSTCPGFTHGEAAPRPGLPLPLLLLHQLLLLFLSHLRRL

Which “enzyme selectivity / preference (AChE vs BChE), in words” value (“enzyme selectivity / preference” for short) (human erythrocyte AChE) does the source give for CN1c2ccc(OC(=O)Nc3ccccc3)cc2[C@]2(C)CCO[C@H]12 [Ex. 22, phenylcarbamate of (-)-physovenol] here?
The value was “high preference for Ache”.

And the IC50 (human erythrocyte AChE; AChE IC50)?
The IC50 was 11.2 ± 2.1 nM.

What about the IC50 (human erythrocyte AChE; IC50 for AChE) of the same molecule?
The IC50 was 11 nM.

And the IC50 (plasma BChE)?
The IC50 was 700 ± 37 nM.

Which IC50 (human erythrocyte AChE; pH 8, read-out: AChE IC50) does the source give for Cc1ccc(NC(=O)Oc2ccc3c(c2)[C@]2(C)CCN(C)[C@@H]2N3C)cc1 [Ex. 10, (-)-4'-methylphenylarbamoyleseroline] here?
Its IC50 is 139 ± 3.7 nM.

And the IC50 (plasma BChE; pH 8, read-out: BChE IC50)?
The IC50 was 251 ± 8.6 nM.

For Cc1ccccc1NC(=O)Oc1ccc2c(c1)[C@]1(C)CCO[C@@H]1N2C [Ex. 23, (-)-5-O-(2'-Methylphenylcarbamoyl)physovenol], which IC50 (human erythrocyte AChE; pH 8, read-out: AChE IC50) is on record?
Its IC50 is 12.9 ± 0.8 nM.

What about the IC50 (plasma BChE; pH 8, read-out: BChE IC50) of the same molecule?
Its IC50 is 1560 ± 120 nM.

With Cc1cc(C)c(NC(=O)Oc2ccc3c(c2)[C@]2(C)CCN(C)[C@@H]2N3C)c(C)c1 [Ex. 15, (-)-(-)-2',4',6'-trimethylphenylcarbamoyleseroline] as the molecule, how does the IC50 (human erythrocyte AChE; pH 8, read-out: AChE IC50) read?
The IC50 was 1290 ± 73.8 nM.

What about the IC50 (plasma BChE; pH 8, read-out: BChE IC50) of the same molecule?
The IC50 was 3290 ± 885 nM.

For CNC(=O)Oc1ccc2c(c1)[C@]1(C)CCO[C@@H]1N2C [(3) (-)-physovenine, (-)-physovenine, reference compound], which “enzyme selectivity / preference” value (human erythrocyte AChE) is on record?
The value was “inhibited AChE and BChE in vitro similarly at similar concentrations”.

And the IC50 (human erythrocyte AChE; pH 8, read-out: AChE IC50)?
The IC50 was 27.1 ± 0.8 nM.

And the IC50 (plasma BChE)?
Its IC50 is 3.5 ± 1.4 nM.

Which IC50 (human erythrocyte AChE; pH 8, read-out: AChE IC50) does the source give for CCc1cccc(CC)c1NC(=O)Oc1ccc2c(c1)[C@]1(C)CCN(C)[C@@H]1N2C [Ex. 11, (-)-2',6-diethylphenylcarbamoylescroline] here?
Its IC50 is 1490 ± 49.8 nM.

And the IC50 (plasma BChE)?
The IC50 was 1070 ± 48 nM.

What does the source list for CN1CC[C@@]2(C)c3cc(OC(=O)Nc4c(Cl)cccc4Cl)ccc3N(C)[C@@H]12 [Ex. 18, (-)-2',6'-dichlorophenylcarbamoylseroline]?
IC50 (human erythrocyte AChE): 66.6 ± 1.8 nM; IC50 (plasma BChE): 425 ± 86.4 nM

For CN1CC[C@@]2(C)c3cc(OC(=O)Nc4ccccc4)ccc3N(C)[C@@H]12 [Ex. 14, (-)-phenylcarbamoyleserolne], which “lower concentration for inhibition of AChE than of BChE” value (human erythrocyte AChE; human) is on record?
Its value is 50 times.

Which “properties at the neuromuscular AChR, in words” value (neuromuscular AChR) does the source give for CNC(=O)Oc1ccc2c(c1)[C@]1(C)CCN(C)[C@@H]1N2C [(1) (-)-physostigmne, (-)-physostigmine] here?
The value was “blocking properties as well as agonist properties at the neuromuscular AChR”.

With CCc1ccccc1NC(=O)Oc1ccc2c(c1)[C@]1(C)CCN(C)[C@@H]1N2C [Ex. 12, (-)-2'-ethylphenylcarbamoyleseroline] as the molecule, how does the IC50 (human erythrocyte AChE) read?
The IC50 was 9.7 ± 0.1 nM.

What about the IC50 (plasma BChE; pH 8, read-out: BChE IC50) of the same molecule?
The IC50 was 2920 ± 537 nM.

For CN1CC[C@@]2(C)c3cc(OC(=O)Nc4ccccc4Cl)ccc3N(C)[C@@H]12 [Ex. 17, (-)-2'-chlorophenylcarbamoyleseroline], which IC50 (human erythrocyte AChE) is on record?
The IC50 was 496 ± 28.2 nM.

And the IC50 (plasma BChE)?
Its IC50 is 1610 ± 86.4 nM.

For Cc1ccc(NC(=O)Oc2ccc3c(c2)[C@]2(C)CCN(C)[C@@H]2N3C)c(C)c1 [Ex. 8, (-)-2'-4'-dimethylphenylcarbamoyleseroline], which IC50 (human erythrocyte AChE) is on record?
The IC50 was 13.6 ± 1 nM.

What about the IC50 (plasma BChE; pH 8, read-out: BChE IC50) of the same molecule?
Its IC50 is 1820 ± 558 nM.

For CC(C)c1ccc(NC(=O)Oc2ccc3c(c2)[C@]2(C)CCO[C@@H]2N3C)cc1 [compound 24], which “enzyme selectivity / preference” value (human erythrocyte AChE) is on record?
The value was “reverse enzyme specificity”.

What about the IC50 (human erythrocyte AChE; read-out: IC50 for AChE) of the same molecule?
Its IC50 is 3800 nM.

And the IC50 (plasma BChE; read-out: IC50 for BChE (printed once as RChE))?
Its IC50 is 16.5 nM.

For Cc1ccccc1NC(=O)Oc1ccc2c(c1)[C@]1(C)CCN(C)[C@@H]1N2C [Ex. 7, (-)-2'-Methylphenylcarbamoyleseroline], which IC50 (human erythrocyte AChE; pH 8, read-out: AChE IC50) is on record?
The IC50 was 10.3 ± 1.6 nM.
